Marks after values point to notes of the source that are not given here.
Assays:
VEGF = experiment: Psoriasis vulgaris model: VEGF levels in serum; format: in vivo, SCID mice; details: after 10 days administration, x ± s, n = 10
From the text: Female and male SCID mice were separately fed for one week, and allowed to adapt growing environment. Patients with psoriasis vulgaris or plaque-type psoriasis were chosen (indentifying the informed consent). Dermatochalasis containing 2 cm×2 cm psoriasis skin damage in patients was chosen to make a fusiform incision, and full-thickness of skin was cut and trimmed into free skin graft with a suitable thickness of 0.6 cm×0.6 cm. Aseptic packaging was wrapped up with bandage macerated with normal saline, to prepare for transplantation. According to the body weight of SCID mice, 3% chloral hydrate (0.1 ml/10 g) was administrated, followed by skin preparation and unhair. Epidermis was scissored and cut into fascia layer, and the trimmed skin graft was sutured using 3-0 silk thread and subjected to pressure dressing with cotton ball soaking with normal saline. After transplantation of skin, mice were raised in separated cages, and all processes were finished within 2 h. After 10 days, skin damage arounding was injected with PBMC (1×10^6/mouse) provided by transplantation supplier and treated with ConA. […]
Before sacrificing guinea pigs, blood was taken and centrifuged under 2000r/rain, to collect serum. Using ELISA kit, optical density was detected as instructions in kit. The results were calculated by standard curve, and the ratio of cAMP/cGMP was calculated according to the results. […]

cAMP and cGMP in serum = experiment: Psoriasis vulgaris model: content and ratio of cAMP and cGMP in serum (ELISA); format: in vivo, SCID mice; details: x ± s, n = 10
From the text: Female and male SCID mice were separately fed for one week, and allowed to adapt growing environment. Patients with psoriasis vulgaris or plaque-type psoriasis were chosen (indentifying the informed consent). Dermatochalasis containing 2 cm×2 cm psoriasis skin damage in patients was chosen to make a fusiform incision, and full-thickness of skin was cut and trimmed into free skin graft with a suitable thickness of 0.6 cm×0.6 cm. Aseptic packaging was wrapped up with bandage macerated with normal saline, to prepare for transplantation. According to the body weight of SCID mice, 3% chloral hydrate (0.1 ml/10 g) was administrated, followed by skin preparation and unhair. Epidermis was scissored and cut into fascia layer, and the trimmed skin graft was sutured using 3-0 silk thread and subjected to pressure dressing with cotton ball soaking with normal saline. After transplantation of skin, mice were raised in separated cages, and all processes were finished within 2 h. After 10 days, skin damage arounding was injected with PBMC (1×10^6/mouse) provided by transplantation supplier and treated with ConA. After two weeks, exterior packing was dismantled to observe the survival situation of skin and confirm the success of model establishment, and the successful model was used for further experiment.
The administration was kept for 10 days.
Before sacrificing guinea pigs, blood was taken and centrifuged under 2000r/rain, to collect serum. Using ELISA kit, optical density was detected as instructions in kit. The results were calculated by standard curve, and the ratio of cAMP/cGMP was calculated according to the results.
All values were processed using SPSS13.0 software, and the experimental results were presented as x±s. p<0.05 was considered to be a statistical difference. The mean of multi-samples was compared using analysis of variance.

[1] = system: psoriasis vulgaris model (transplanted psoriasis skin damage); experiment: Psoriasis vulgaris model: SCID mice transplanted with patient psoriasis skin, HE histology and Baker scores; format: in vivo
Experimental: Female and male SCID mice were separately fed for one week, and allowed to adapt growing environment. Patients with psoriasis vulgaris or plaque-type psoriasis were chosen (indentifying the informed consent). […] Aseptic packaging was wrapped up with bandage macerated with normal saline, to prepare for transplantation. According to the body weight of SCID mice, 3% chloral hydrate (0.1 ml/10 g) was administrated, followed by skin preparation and unhair. […] After transplantation of skin, mice were raised in separated cages, and all processes were finished within 2 h. After 10 days, skin damage arounding was injected with PBMC (1×10^6/mouse) provided by transplantation supplier and treated with ConA. After two weeks, exterior packing was dismantled to observe the survival situation of skin and confirm the success of model establishment, and the successful model was used for further experiment. […] The administration was kept for 10 days. […] Skin damage was trimmed into suitable size, dehydrated, embedded, sliced, and stained with HE. […] Baker scores were calculated, and the difference in data of each group was compared. All values were processed using SPSS13.0 software, and the experimental results were presented as x±s. p<0.05 was considered to be a statistical difference. The mean of multi-samples was compared using analysis of variance.

[2] = serum, ELISA, after 10 days administration
[3] = transplanted skin, HE stain, after 10 days administration

In the case of `COc1cc(C)c(/C=C/C(C)=C/C=C/C(C)=C/C(=O)O)c(C)c1C` [Positive control, Acitretin A capsule], the “VEGF levels in serum” value (VEGF) is reported as 93.40 ± 6.54^ab pg/m1, the cAMP/cGMP (cAMP and cGMP in serum; ratio of serum contents) is reported as 3.02 ± 0.08^ab and the cAMP in serum (cAMP and cGMP in serum; [2]) is reported as 10.22 ± 0.73^ab pmol/m1. The cGMP in serum (cAMP and cGMP in serum; [2]) was 3.38 ± 0.20^ab pmol/m1, the Number of acanthocytes ([1]; 10 days administration, x ± s, n = 10) was 27.09 ± 8.83^a and the “Monocytes (count)” value ([1]; surrounding superficial layer blood vessels in dermis, 200 times visual fields, 10 days administration, x ± s, n = 10) was 66.40 ± 9.28^a. The Baker scores ([1]; test drugs 100 mg/kg intragastric once a day, positive control 2.25 mg/kg twice a day, 10 days, x ± s, n = 10) was 6.39 ± 1.53^a, the “degree of parakeratosis under light microscope” value [1, 3] was “middle degree of parakeratosis” and the “epidermis wooden stick-like hyperplasia” value [1, 3] was “middle degree of wooden stick-like hyperplasia”. The “monocyte infiltration surrounding blood vessels in dermis” value [1, 3] was “small amounts of monocyte infiltration”, the punctiform granular layer [1, 3] was “local visible punctiform granular layer and hyperkeratinization” and the spinous layer thickness [1, 3] was 24-32 layers.

Source: patent US20180021395A1, “EUCOMMIA LEAF EXTRACT, AND PREPARATION METHOD AND USE THEREOF” (SICHUAN JIUZHANG BIOLOGICAL SCIENCE AND TECHNOLOGY CO., LTD, priority 2015, published 2018)
